Source: patent US10793563B2, “GCN2 inhibitors and uses thereof” (Merck Patent GmbH, priority 2018, dated 2020)
Where two headings read alike, the source gives them in different places.

Legend:
GCN2 kinase = GCN2 kinase (Homo sapiens (Human), UniProt Q9P2K8); experiment: GCN2 Enzyme Inhibition Assay (Transcreener ADP2 fluorescence polarization); assay type: biochemical; details: 280 μM ATP, 200 μM (RS)7 peptide, 4 nM GCN2, 25° C.; for Ki: Ki(app)
Outline: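 At 25 °C, GCN2 kinase (typical final concentration 4 nM) and (RS)7 peptide in Tris-HCl pH 7.5 buffer with MgCl2, NaCl and DTT were preincubated with compound for 10 min, then ATP was added for a 1 h reaction. ADP was read by FP with antibody/Alexa633 tracer. Non-linear tight-binding analysis gave IC50 and apparent Ki.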

[1] = molecular target: intracellular GCN2 (phosphorylation of the GCN2 substrate eIF2α) (Homo sapiens (Human), UniProt Q9P2K8); experiment: GCN2 Cellular Inhibition Assay (AlphaScreen SureFire P-eIF2α Ser51, borrelidin-treated U2OS cells); assay type: cell-based; details: 10 μM borrelidin, 1 h
Sequence of intracellular GCN2 (phosphorylation of the GCN2 substrate eIF2α) (Q9P2K8 whole entry): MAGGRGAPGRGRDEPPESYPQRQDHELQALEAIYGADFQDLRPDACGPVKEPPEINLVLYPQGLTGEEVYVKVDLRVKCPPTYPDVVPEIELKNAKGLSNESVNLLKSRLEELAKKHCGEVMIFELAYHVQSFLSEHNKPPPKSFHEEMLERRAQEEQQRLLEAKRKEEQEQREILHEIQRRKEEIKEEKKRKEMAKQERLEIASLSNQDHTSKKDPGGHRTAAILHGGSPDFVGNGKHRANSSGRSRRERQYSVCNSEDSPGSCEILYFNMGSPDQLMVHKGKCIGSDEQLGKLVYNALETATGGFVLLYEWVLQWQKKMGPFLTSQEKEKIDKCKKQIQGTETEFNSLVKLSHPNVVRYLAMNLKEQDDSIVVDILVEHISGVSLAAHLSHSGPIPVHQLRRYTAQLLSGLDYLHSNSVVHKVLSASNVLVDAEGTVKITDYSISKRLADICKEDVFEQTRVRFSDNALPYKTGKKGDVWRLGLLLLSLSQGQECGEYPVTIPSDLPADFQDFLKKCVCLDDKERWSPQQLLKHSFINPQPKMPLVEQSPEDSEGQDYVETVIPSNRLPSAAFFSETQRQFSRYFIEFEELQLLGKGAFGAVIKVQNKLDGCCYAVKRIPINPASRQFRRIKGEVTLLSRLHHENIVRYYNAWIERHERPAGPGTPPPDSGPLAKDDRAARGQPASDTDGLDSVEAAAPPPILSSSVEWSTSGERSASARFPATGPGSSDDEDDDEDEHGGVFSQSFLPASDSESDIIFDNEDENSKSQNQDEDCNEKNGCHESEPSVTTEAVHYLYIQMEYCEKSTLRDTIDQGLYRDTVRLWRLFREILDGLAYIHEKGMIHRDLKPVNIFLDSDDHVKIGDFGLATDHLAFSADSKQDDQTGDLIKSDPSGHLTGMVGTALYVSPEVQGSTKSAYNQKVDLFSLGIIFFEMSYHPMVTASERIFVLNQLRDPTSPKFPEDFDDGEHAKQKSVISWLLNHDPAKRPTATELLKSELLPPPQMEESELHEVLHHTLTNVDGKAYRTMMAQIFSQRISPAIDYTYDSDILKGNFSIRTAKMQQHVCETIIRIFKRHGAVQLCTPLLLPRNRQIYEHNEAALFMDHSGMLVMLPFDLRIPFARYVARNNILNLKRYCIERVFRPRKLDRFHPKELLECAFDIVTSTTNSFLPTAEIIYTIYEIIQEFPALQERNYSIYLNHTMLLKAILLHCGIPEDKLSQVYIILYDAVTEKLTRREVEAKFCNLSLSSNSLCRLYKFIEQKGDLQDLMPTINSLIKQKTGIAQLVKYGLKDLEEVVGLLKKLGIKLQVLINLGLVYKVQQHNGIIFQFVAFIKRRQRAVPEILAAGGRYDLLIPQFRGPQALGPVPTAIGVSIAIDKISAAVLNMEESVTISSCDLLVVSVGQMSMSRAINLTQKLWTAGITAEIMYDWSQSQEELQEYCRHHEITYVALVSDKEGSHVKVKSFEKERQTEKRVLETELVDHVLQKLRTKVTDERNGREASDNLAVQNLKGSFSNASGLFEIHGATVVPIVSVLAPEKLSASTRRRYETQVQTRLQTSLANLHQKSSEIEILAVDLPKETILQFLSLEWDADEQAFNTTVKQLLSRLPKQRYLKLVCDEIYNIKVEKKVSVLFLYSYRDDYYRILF
Outline: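 Phospho-eIF2α (Ser51) measured by AlphaScreen SureFire in lysates of U2OS cells stimulated 1 h at 37 °C with 10 μM borrelidin alongside compound, 4-fold dilutions from 40 μM. Inhibition expressed as percent relative to borrelidin-alone controls.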

[2] = phosphorylated eIF2α Ser51, read-out: GCN2 Biomarker (IC50)

Sequence of GCN2 kinase (Q9P2K8 whole entry): as above

COCC1(CN2CCN(c3ccnc(-c4cnc5ccc(C(F)(F)F)cn45)n3)[C@H](C)[C@@H]2c2cn[nH]c2)CCC1 (stereo in doubt) [I-511, 4-[(2R,3 S)-4-{[1-(methoxymethyl)cyclobutyl]methyl}-2-methyl-3-(1H-pyrazol-4-yl)piperazin-1-yl]-2-[6-(trifluoromethyl)imidazo[1,2-a]pyridin-3-yl]pyrimidine]
IC50 (GCN2 kinase): < 0.01 µM
IC50 [1, 2]: < 0.5 µM

C[C@H]1[C@@H](CNS(C)(=O)=O)N(C2CC2)[C@@H](C)CN1c1ccnc(-c2cnc3ccc(C(F)(F)F)cn23)n1 (stereo in doubt) [I-491, N-(((2R,3 S,6S)-1-cyclopropyl-3,6-dimethyl-4-(2-(6-(trifluoromethyl)imidazo[1,2-a]pyridin-3-yl)pyrimidin-4-yl)piperazin-2-yl)methyl)methanesulfonamide]
IC50 (GCN2 kinase): 0.01 to 0.1 µM
IC50 [1, 2]: < 0.5 µM

CC1(C)C[C@H]1CN1CCN(c2ccnc(-c3cnc4ccc(C(F)(F)F)cn34)n2)C[C@H]1c1cn[nH]c1 [I-526, 3-(4-((R)-4-(((R)-2,2-dimethylcyclopropyl)methyl)-3-(1H-pyrazol-4-yl)piperazin-1-yl)pyrimidin-2-yl)-6-(trifluoromethyl)imidazo[1,2-a]pyridine]
IC50 (GCN2 kinase): 0.01 to 0.1 µM
IC50 [1, 2]: < 0.5 µM

Cc1oncc1[C@H]1CN(c2ccnc(-c3cnc4ccc(C(F)(F)F)cn34)n2)C[C@@H](C)O1 [I-347, (2R,6S)-2-methyl-6-(5-methylisoxazol-4-yl)-4-(2-(6-(trifluoromethyl)imidazo[1,2-a]pyridin-3-yl)pyrimidin-4-yl)morpholine]
IC50 (GCN2 kinase): 0.1 to 1 µM
IC50 [1, 2]: 0.5 to 5 µM

O=C1NCC2CN(c3ccnc(-c4cnc5ccc(C(F)(F)F)cn45)n3)CCN12 (stereo not drawn) [I-43, 7-[2-[6-(Trifluoromethyl)imidazo[1,2-a]pyridin-3-yl]pyrimidin-4-yl]-1,2,5,6,8,8a-hexahydroimidazo[1,5-a]pyrazin-3-one]
Ki (GCN2 kinase): < 0.01 µM
IC50 [1, 2]: 0.5 to 5 µM

CP(C)(=O)C1CC(c2cn[nH]c2)CN(c2ccnc(-c3cnc4ccc(Cl)cn34)n2)C1 (stereo not drawn) [I-29, 6-Chloro-3-[4-[3-dimethylphosphoryl-5-(1H-pyrazol-4-yl)-1-piperidyl]pyrimidin-2-yl]imidazo[1,2-a]pyridine]
Ki (GCN2 kinase): < 0.01 µM
IC50 [1, 2]: > 5 µM

CS(=O)(=O)NCC1CCCN(c2nsc(-c3cnc4ccc(C(F)(F)F)cn34)n2)C1 (stereo not drawn) [I-110, N-((1-(5-(6-(trifluoromethyl)imidazo[1,2-a]pyridin-3-yl)-1,2,4-thiadiazol-3-yl)piperidin-3-yl)methyl)methanesulfonamide]
Ki (GCN2 kinase): < 0.01 µM
IC50 [1, 2]: 0.5 to 5 µM

Cn1cc(C(=O)N2CCN(c3ccnc(-c4cnc5ccc(C(F)(F)F)cn45)n3)CC2c2cn[nH]c2)cn1 (stereo not drawn) [I-418, (2-(1H-pyrazol-4-yl)-4-(2-(6-(trifluoromethyl)imidazo[1,2-a]pyridin-3-yl)pyrimidin-4-yl)piperazin-1-yl)(1-methyl-1H-pyrazol-4-yl)methanone]
IC50 (GCN2 kinase): 0.01 to 0.1 µM
IC50 [1, 2]: 0.5 to 5 µM

FC(F)(F)c1ccc2ncc(-c3nccc(N4CCCC(n5ccc(C(F)(F)F)n5)C4)n3)n2c1 (stereo not drawn) [I-355, 6-(trifluoromethyl)-3-(4-(3-(3-(trifluoromethyl)-1H-pyrazol-1-yl)piperidin-1-yl)pyrimidin-2-yl)imidazo[1,2-a]pyridine]
IC50 (GCN2 kinase): 0.1 to 1 µM
IC50 [1, 2]: 0.5 to 5 µM

CS(=O)(=O)N1CC2(CCCN(c3ccnc(-c4cnc5ccc(C(F)F)cn45)n3)C2)C1 [I-395, 6-(2-(6-(difluoromethyl)imidazo[1,2-a]pyridin-3-yl)pyrimidin-4-yl)-2-(methylsulfonyl)-2,6-diazaspiro[3.5]nonane]
IC50 (GCN2 kinase): 0.1 to 1 µM
IC50 [1, 2]: 0.5 to 5 µM

Cc1cnc(N2C[C@@H](C)O[C@@H](c3cn[nH]c3C)C2)nc1-c1cnc2ccc(Cl)cn12 [I-204, (2R,6S)-4-(4-(6-chloroimidazo[1,2-a]pyridin-3-yl)-5-methylpyrimidin-2-yl)-2-methyl-6-(5-methyl-1H-pyrazol-4-yl)morpholine]
IC50 (GCN2 kinase): 0.01 to 0.1 µM
IC50 [1, 2]: 0.5 to 5 µM

Cc1[nH]ncc1[C@H]1CN(c2nccc(-c3cnc4ccc(Cl)cn34)n2)C[C@@H](C)O1 [I-180, (2R,6S)-4-(4-(6-chloroimidazo[1,2-a]pyridin-3-yl)pyrimidin-2-yl)-2-methyl-6-(5-methyl-1H-pyrazol-4-yl)morpholine]
IC50 (GCN2 kinase): < 0.01 µM
IC50 [1, 2]: < 0.5 µM

Clc1ccc2ncc(-c3nccc(N4CC5CC5(c5ccccc5)C4)n3)n2c1 (stereo not drawn) [I-84, 6-Chloro-3-[4-(1-phenyl-3-aza-bicyclo[3.1.0]hex-3-yl)-pyrimidin-2-yl]-imidazo[1,2-a]pyridine]
Ki (GCN2 kinase): 0.1 to 1 µM
IC50 [1, 2]: > 5 µM

NC(=O)[C@H]1CCCN(c2nc(-c3cnc4ccc(C(F)(F)F)cn34)ncc2F)C1 [I-278, (S)-1-(5-fluoro-2-(6-(trifluoromethyl)imidazo[1,2-a]pyridin-3-yl)pyrimidin-4-yl)piperidine-3-carboxamide]
IC50 (GCN2 kinase): < 0.01 µM
IC50 [1, 2]: < 0.5 µM

C[C@H]1CN(c2ccnc(-c3cnc4ccc(C(F)(F)F)cn34)n2)C[C@@H](CNS(C)(=O)=O)C1(F)F (stereo in doubt) [I-8, N-[[-4,4-Difluoro-5-methyl-1-[2-[6-(trifluoromethyl)imidazo[1,2-a]pyridin-3-yl]pyrimidin-4-yl]-3-piperidyl]methyl]methanesulfonamide]
Ki (GCN2 kinase): 0.01 to 0.1 µM
IC50 [1, 2]: 0.5 to 5 µM

C[C@@H]1[C@H](CNS(C)(=O)=O)N(C2CC2)CCN1c1nccc(-c2cnc3ccc(C(F)(F)F)cn23)n1 [I-543, N-{(2S,3R)-1-Cyclopropyl-3-methyl-4-[4-(6-trifluoromethyl-imidazo[1,2-a]pyridin-3-yl)-pyrimidin-2-yl]-piperazin-2-ylmethyl}-methanesulfonamide]
IC50 (GCN2 kinase): < 0.01 µM
IC50 [1, 2]: < 0.5 µM

Cc1[nH]ncc1[C@H]1CN(c2ccnc(-c3cnc4cc(F)c(Cl)cn34)n2)C[C@@H](C)O1 [I-540, (2R,6S)-4-(2-(6-chloro-7-fluoroimidazo[1,2-a]pyridin-3-yl)pyrimidin-4-yl)-2-methyl-6-(5-methyl-1H-pyrazol-4-yl)morpholine]
IC50 (GCN2 kinase): < 0.01 µM
IC50 [1, 2]: < 0.5 µM

C[C@H]1CN(c2ccnc(-c3cnc4ccc(C(F)F)cn34)n2)C[C@@H](CO)O1 [I-524, ((2S,6S)-4-(2-(6-(difluoromethyl)imidazo[1,2-a]pyridin-3-yl)pyrimidin-4-yl)-6-methylmorpholin-2-yl)methanol]
IC50 (GCN2 kinase): 0.01 to 0.1 µM
IC50 [1, 2]: 0.5 to 5 µM

FC(F)(F)c1ccc2ncc(-c3nccc(N4CCN(Cc5cnon5)C(c5cn[nH]c5)C4)n3)n2c1 (stereo not drawn) [I-461, 4-{4-[(1,2,5-oxadiazol-3-yl)methyl]-3-(1H-pyrazol-4-yl)piperazin-1-yl}-2-[6-(trifluoromethyl)imidazo[1,2-a]pyridin-3-yl]pyrimidine]
IC50 (GCN2 kinase): < 0.01 µM
IC50 [1, 2]: < 0.5 µM

Cn1cc(CN2CCN(c3ccnc(-c4cnc5ccc(C(F)(F)F)cn45)n3)CC2c2cn[nH]c2)cn1 (stereo not drawn) [I-384, 3-(4-(4-((1-methyl-1H-pyrazol-4-yl)methyl)-3-(1H-pyrazol-4-yl)piperazin-1-yl)pyrimidin-2-yl)-6-(trifluoromethyl)imidazo[1,2-a]pyridine]
IC50 (GCN2 kinase): < 0.01 µM
IC50 [1, 2]: < 0.5 µM

Cc1cnc(N2C[C@@H](c3cn[nH]c3C)O[C@@H](C)C2)nc1-c1cnc2ccc(Cl)cn12 [I-203, (2S,6R)-4-(4-(6-chloroimidazo[1,2-a]pyridin-3-yl)-5-methylpyrimidin-2-yl)-2-methyl-6-(5-methyl-1H-pyrazol-4-yl)morpholine]
IC50 (GCN2 kinase): 0.01 to 0.1 µM
IC50 [1, 2]: 0.5 to 5 µM

CC(C)n1cc(C2(O)CCCN(c3ccnc(-c4cnc5ccc(Cl)cn45)n3)C2)nn1 (stereo not drawn) [I-76, 1-[2-(6-Chloro-imidazo[1,2-a]pyridin-3-yl)-pyrimidin-4-yl]-3-(1-isopropyl-1H-[1,2,3]triazol-4-yl)-piperidin-3-ol]
Ki (GCN2 kinase): 0.1 to 1 µM
IC50 [1, 2]: > 5 µM

O=C(Nc1ccncc1)[C@H]1CCCN(c2ccnc(-c3cnc4cc(F)c(Cl)cn34)n2)C1 [I-86, (S)-1-[2-(6-Chloro-7-fluoro-imidazo[1,2-a]pyridine-3-yl)-pyrimidin-4-yl]-piperidine-3-carboxylic acid pyridine-4-ylamide]
Ki (GCN2 kinase): 0.01 to 0.1 µM
IC50 [1, 2]: 0.5 to 5 µM

C[C@H]1CN(c2nccc(-c3cnc4cc(F)c(Cl)cn34)n2)C[C@H](c2cn[nH]c2)O1 [I-275, (2S,6S)-4-(4-(6-chloro-7-fluoroimidazo[1,2-a]pyridin-3-yl)pyrimidin-2-yl)-2-methyl-6-(1H-pyrazol-4-yl)morpholine]
IC50 (GCN2 kinase): < 0.01 µM
IC50 [1, 2]: 0.5 to 5 µM

C[C@@H]1CN(c2ccnc(-c3cnc4ccc(C(F)(F)F)cn34)n2)C[C@H](C)N1C(=O)CC1COC1 [I-501, 1-(cis-2,6-dimethyl-4-(2-(6-(trifluoromethyl)imidazo[1,2-a]pyridin-3-yl)pyrimidin-4-yl)piperazin-1-yl)-2-(oxetan-3-yl)ethan-1-one]
IC50 (GCN2 kinase): 0.1 to 1 µM
IC50 [1, 2]: 0.5 to 5 µM

O=C(Nc1cn[nH]c1)[C@H]1CCCN(c2ccnc(-c3cnc4cc(F)c(Cl)cn34)n2)C1 [I-58, (S)-1-[2-(6-Chloro-7-fluoro-imidazo[1,2-a]pyridine-3-yl)-pyrimidin-4-yl]-piperidine-3-carboxylic acid (1H-pyrazol-4-yl)-amide]
Ki (GCN2 kinase): 0.01 to 0.1 µM
IC50 ([1]; GCN2 Biomarker (IC50), phosphorylated eIF2α Ser51): 0.5 to 5 µM

O=C1NCC2CN(c3ccnc(-c4cnc5ccc(C(F)(F)F)cn45)n3)CCN12 (stereo not drawn) [I-5, 7-(2-(6-(Trifluoromethyl)imidazo[1,2-a]pyridin-3-yl)pyrimidin-4-yl)hexahydroimidazo[1,5-a]pyrazin-3(2H)-one]
Ki (GCN2 kinase): 0.01 to 0.1 µM
IC50 [1, 2]: 0.5 to 5 µM
